# Measurements as given in publication PMC10754035 (Cancer Research Communications, 2023).
# How the values were obtained:
# KRAS G12V = biological target: T1, KRAS G12V (Homo sapiens, UniProt P01116, G12V); test: Isothermal titration calorimetry, KRAS G12V; type: binding; conditions: ITC, KRAS G12V-NE
# T1 construct: Human His-tagged KRAS4B (1-169) G12D, G12V and G12C were custom synthesized; 6His (pET-28a(+)-TEV vector) (N); host or cells: E. coli BL21 star (DE3)
# Procedure: (§1) All isothermal titration calorimetry (ITC) experiments were carried out at 25°C on a MicroCal PEAQ ITC Automated (Malvern). […] The final ITC buffer in the syringe and the cell was 25 mmol/L Tris HCl (pH 8.0), 100 mmol/L NaCl, 0.1 mmol/L DTT, 5% glycerol, 1% NP40, 5 mmol/L MgCl2, and 5% DMSO. ITC titration experiments were carried out with 19 injections, 2 µL per injection, and 150 seconds spacing between each injection. Reference cell power was set to 5 µcal/second and stirring speed was 750 rpm. Data were analyzed using a one site binding model with the Malvern analysis software. All ITC experiments were performed at the biophysical facility at the Institute for Structural Biology, Drug Discovery and Development (ISB3D) at Virginia Commonwealth University (Richmond, VA) and the Massey Cancer Center.
# Expression and purification of RAS proteins: Human His-tagged KRAS4B (1-169) G12D, G12V and G12C were custom synthesized and cloned into pET-28a(+)-TEV vector to generate pET-28a(+)-6His-KRAS (1-169) plasmids by GenScript USA Inc., Piscataway, NJ. The proteins were expressed and purified as described below. […]
# KRAS G12D = biological target: T2, KRAS G12D (Homo sapiens, UniProt P01116, G12D); test: Isothermal titration calorimetry, KRAS G12D; type: binding; conditions: ITC
# T2 construct: Human His-tagged KRAS4B (1-169) G12D, G12V and G12C were custom synthesized; 6His (pET-28a(+)-TEV vector) (N); host or cells: E. coli BL21 star (DE3)
# Procedure: as §1
# Expression and purification of RAS proteins: Human His-tagged KRAS4B (1-169) G12D, G12V and G12C were custom synthesized and cloned into pET-28a(+)-TEV vector to generate pET-28a(+)-6His-KRAS (1-169) plasmids by GenScript USA Inc., Piscataway, NJ. The proteins were expressed and purified as described below. The full length biotinylated human KRAS4B G12D (His6-MBP-tev-Avi-Hs.KRAS4b G12D (2-188) protein was obtained from Dr Dominic Esposito and Dr. William Gillette from the NCI RAS Initiative at the Frederick National Laboratory. Avi-KRAS4b (2-188) G12D was cloned, expression and purified as described previously (1,2).
# Expression and purification of KRAS proteins: BL21 star (DE3) competent cells were transformed with pET-28a(+)-6His-KRAS (1-169) plasmids from GenScript, and the resulting colonies were picked under kanamycin selection. The colonies were grown in LB broth and induced with 0.5mM IPTG for 4 hours when OD reached 0.6-0.8. Bacteria pellets were lysed in 25mM Tris HCL (pH7.8) buffer containing 300mM NaCl, 5mM MgCl2, 10mM Imidazole, 5% Glycerol and 3mM β-mercaptoethanol. Membrane filter-cleared lysate supernatants were incubated with HisPur Ni-NTA resin (Thermo scientific) in an oscillating platform at 4°C for 50 minutes. Econo disposable column (Bio-Rad) was used for washing the beads 3 times with 25mM Tris HCl (pH7.8), 300mM NaCl, 5mM MgCl2, 5% Glycerol buffer with 10mM, 20mM and 30mM Imidazole, respectively. Elution was carried with 25mM Tris HCl (pH7.8), 300mM NaCl, 5mM MgCl2, 5% Glycerol and 500mM Imidazole buffer. After confirming the eluted fraction purity on SDS-PAGE gel, proteins fractions were further purified using HiLoad 16/600 superdex 75 PG column in AKTA system. Protein was eluted in 25mM Tris HCL (pH7.8), 150mM NaCl, 5mM MgCl2 and 0.5mM DTT. KRAS protein aliquots were stored in -80°C.
# GCP and NH-GDP nucleotide exchange for ITC: KRAS G12D protein in 25 mM Tris HCL (pH 8.0), 1 mM Calcium Chloride Dihydrate and 200 mM (NH4)2SO4 buffer was added to alkaline phosphatase beads (Sigma, USA) (2U per mg of KRAS) and to non-hydrolysable nucleotide analogs, GCP (β,γ-Methyleneguanosine 5′-triphosphate sodium salt, Sigma, USA) or GDP-NH (Guanosine 5′-[β-thio]diphosphate trilithium salt, Sigma, USA) in molar ratio of 10:1 (Nucleotide:KRAS). The reaction mixture was incubated with gentle rotation for 14-18 hrs at 4 °C. After incubation, the mixture was centrifuged at 1500 g, 4°C to remove the alkaline phosphatase beads. MgCl2 (20 mM) and an additional amount of GCP or NH-GDP in molar ratio of 5:1 (Nucleotide:KRAS) were added, and incubated at room temperature for 1 hr. After incubation, nucleotide exchanged protein was desalted and buffer exchanged at 4 °C using PD-10 column (Catalog # 17085101, GE Healthcare, USA), into a final buffer containing 25 mM Tris HCL (pH 7.5), 150 mM NaCl, 5 mM MgCl2 and 0.5 mM DTT. Buffer exchanged protein was concentrated using Amicon ultra centrifugal filter-10K cut off (Catalog # UFC501024, MilliporeSigma, USA). The protein concentration was measured using Pierce Rapid GOLD BCA Protein Assay Kit (Thermo Scientific, USA) and aliquots were stored in -80°C.
# T2 sequence (P01116 1-169 isoform P01116-2 G12D): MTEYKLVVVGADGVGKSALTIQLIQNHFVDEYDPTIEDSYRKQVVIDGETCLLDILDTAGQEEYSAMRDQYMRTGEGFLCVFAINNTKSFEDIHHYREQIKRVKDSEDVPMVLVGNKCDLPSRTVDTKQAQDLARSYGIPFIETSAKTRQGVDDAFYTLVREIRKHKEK
# T1 sequence (P01116 1-169 isoform P01116-2 G12V): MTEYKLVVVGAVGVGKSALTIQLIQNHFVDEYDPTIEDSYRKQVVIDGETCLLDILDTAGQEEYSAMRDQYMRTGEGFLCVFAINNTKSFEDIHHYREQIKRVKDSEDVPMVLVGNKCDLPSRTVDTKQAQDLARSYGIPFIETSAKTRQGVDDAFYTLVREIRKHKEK
smiles,measurement,setting,value
COC(=O)C1C2C3(C)C(=O)C=CC2(OC3=O)C2CCC3(CBr)CC12CC3=O (stereo not shown) [KRB-456],Kd,KRAS G12V,392 nM
same,Kd,"KRAS G12D; KRAS G12D-NE (non-exchanged), 25°C",247 nM
same,Kd,KRAS G12D; NH-GDP-loaded KRAS G12D,479 nM
same,Kd,KRAS G12D; NH-GTP-loaded KRAS G12D,341 nM
